Assay results: ChEMBL document CHEMBL1131941, “Synthesis and biological evaluation of alpha,alpha-difluorobenzylphosphonic acid derivatives as small molecular inhibitors of protein-tyrosine phosphatase 1B” (Bioorg Med Chem Lett, 1999); call rule not given here

Target: T1, Tyrosine-protein phosphatase non-receptor type 1 (Homo sapiens, UniProt P18031)
T1 sequence (P18031 whole entry): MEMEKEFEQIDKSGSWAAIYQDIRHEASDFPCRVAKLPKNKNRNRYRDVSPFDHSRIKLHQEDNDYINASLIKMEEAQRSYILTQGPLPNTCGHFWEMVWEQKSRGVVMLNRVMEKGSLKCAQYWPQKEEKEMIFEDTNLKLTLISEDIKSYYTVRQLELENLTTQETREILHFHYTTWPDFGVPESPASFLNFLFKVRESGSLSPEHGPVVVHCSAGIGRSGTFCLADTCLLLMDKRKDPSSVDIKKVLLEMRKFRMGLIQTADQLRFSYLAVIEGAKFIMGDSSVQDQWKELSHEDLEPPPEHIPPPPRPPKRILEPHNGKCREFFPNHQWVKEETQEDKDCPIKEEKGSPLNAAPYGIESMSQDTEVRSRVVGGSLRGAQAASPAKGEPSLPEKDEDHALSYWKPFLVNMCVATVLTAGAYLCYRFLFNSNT
Experiment: Inhibitory potency for the protein tyrosine phosphatase (PTP 1B)-catalyzed hydrolysis of p-nitrophenol phosphate
Assay type: functional

Structure (SMILES) | IC50 [µM]
O=P(O)(O)C(F)(F)c1ccc(C#Cc2ccccc2)cc1 | 128
COc1ccc(-c2ccc(C(F)(F)P(=O)(O)O)cc2)cc1 | 451
O=P(O)(O)C(F)(F)c1ccc(/C=C/c2ccccc2)cc1 | 450
CS(=O)(=O)Nc1cc(C(F)(F)P(=O)(O)O)ccc1C#Cc1ccccc1 | 167
O=P(O)(O)C(F)(F)c1cccc(C#Cc2ccccc2)c1 | 136
C#Cc1ccc(C(F)(F)P(=O)(O)O)cc1 | 77.5
O=P(O)(O)C(F)(F)c1ccc(-c2ccccc2)cc1 | 779
O=P(O)(O)C(F)(F)c1ccc2ccccc2c1 | 718

Further lines, results first:

IC50 [µM] | Structure (SMILES)
176 | CS(=O)(=O)Nc1cc(C(F)(F)P(=O)(O)O)ccc1/C=C/c1ccccc1
19 | C#Cc1cccc(C(F)(F)P(=O)(O)O)c1
386 | O=P(O)(O)C(F)(F)c1cccc(/C=C/c2ccccc2)c1
57.9 | CS(=O)(=O)N(c1cc(C(F)(F)P(=O)(O)O)ccc1/C=C/c1ccccc1)S(C)(=O)=O
88.7 | CS(=O)(=O)N(c1cc(C(F)(F)P(=O)(O)O)ccc1C#Cc1ccccc1)S(C)(=O)=O

Target: T1, Tyrosine-protein phosphatase non-receptor type 1
Experiment: Inhibitory potency for the protein tyrosine phosphatase (PTP 1B)-catalyzed hydrolysis of p-nitrophenol phosphate; No inhibition
Assay type: functional

Structure (SMILES) | IC50
O=P(O)(O)C(F)(F)c1ccccc1 | Not Active
